Laboratory results: PubChem BioAssay (NCI)
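GI50 is the concentration that inhibits growth by half. At the TGI there is no net growth.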

Assays:
Assay in all cases: growth of human tumour cells (NCI), 384-well format
SK-MEL-2 melanoma = test system: SK-MEL-2 melanoma
HCT-15 colon = test system: HCT-15 colon
PC-3 prostate = test system: PC-3 prostate
MALME-3M melanoma = test system: MALME-3M melanoma
RPMI-8226 leukemia = test system: RPMI-8226 leukemia
HOP-62 NSCLC = test system: HOP-62 NSCLC
TK-10 renal = test system: TK-10 renal
T-47D breast = test system: T-47D breast
HL-60(TB) leukemia = test system: HL-60(TB) leukemia
LOX IMVI melanoma = test system: LOX IMVI melanoma
SNB-19 CNS = test system: SNB-19 CNS
RXF 393 renal = test system: RXF 393 renal
OVCAR-4 ovarian = test system: OVCAR-4 ovarian
MDA-MB-231 breast = test system: MDA-MB-231 breast
K-562 leukemia = test system: K-562 leukemia
MOLT-4 leukemia = test system: MOLT-4 leukemia
NCI-H226 lung = test system: NCI-H226 lung
U251 glioblastoma = test system: U251 glioblastoma
IGROV1 ovarian = test system: IGROV1 ovarian
OVCAR-5 ovarian = test system: OVCAR-5 ovarian
OVCAR-8 ovarian = test system: OVCAR-8 ovarian
NCI-H522 lung = test system: NCI-H522 lung
A498 renal = test system: A498 renal
SK-MEL-28 melanoma = test system: SK-MEL-28 melanoma
DU-145 prostate = test system: DU-145 prostate
NCI/ADR-RES ovarian = test system: NCI/ADR-RES ovarian
UACC-62 melanoma = test system: UACC-62 melanoma
786-0 renal = test system: 786-0 renal
BT-549 breast = test system: BT-549 breast
MDA-MB-468 breast = test system: MDA-MB-468 breast
UACC-257 melanoma = test system: UACC-257 melanoma
ACHN renal = test system: ACHN renal
NCI-H322M lung = test system: NCI-H322M lung
KM12 colon = test system: KM12 colon
COLO 205 colon = test system: COLO 205 colon
MCF7 breast = test system: MCF7 breast
SF-539 CNS = test system: SF-539 CNS
HCC-2998 colon = test system: HCC-2998 colon
CAKI-1 renal = test system: CAKI-1 renal
SN12C renal = test system: SN12C renal
UO-31 renal = test system: UO-31 renal
HCT-116 colon = test system: HCT-116 colon
NCI-H23 lung = test system: NCI-H23 lung
SR leukemia = test system: SR leukemia
SF-295 CNS = test system: SF-295 CNS
SK-MEL-5 melanoma = test system: SK-MEL-5 melanoma
SW-620 colon = test system: SW-620 colon
MDA-MB-435 melanoma = test system: MDA-MB-435 melanoma
HT29 colon = test system: HT29 colon
CCRF-CEM leukemia = test system: CCRF-CEM leukemia
SK-OV-3 ovarian = test system: SK-OV-3 ovarian
HOP-92 NSCLC = test system: HOP-92 NSCLC
OVCAR-3 ovarian = test system: OVCAR-3 ovarian
SF-268 CNS = test system: SF-268 CNS
NCI-H460 NSCLC = test system: NCI-H460 NSCLC
M14 melanoma = test system: M14 melanoma
A549 NSCLC = test system: A549 NSCLC

CN(CC(=O)N(Cc1ccc(C2CCCCC2)cc1)c1ccc(C(=O)O)c(O)c1)S(=O)(=O)c1c(F)c(F)c(F)c(F)c1F
GI50 (SK-MEL-2 melanoma): 2.02 µM | TGI (SK-MEL-2 melanoma): 3.62 µM | GI50 (HCT-15 colon): 1.93 µM | TGI (HCT-15 colon): 3.36 µM | GI50 (PC-3 prostate): 2.17 µM | TGI (PC-3 prostate): 3.96 µM | GI50 (MALME-3M melanoma): 2.52 µM | TGI (MALME-3M melanoma): 4.96 µM | GI50 (RPMI-8226 leukemia): 1.79 µM | TGI (RPMI-8226 leukemia): 3.18 µM | GI50 (HOP-62 NSCLC): 5.27 µM | TGI (HOP-62 NSCLC): 16.2 µM | GI50 (TK-10 renal): 14.5 µM | TGI (TK-10 renal): 27.6 µM | GI50 (T-47D breast): 6.09 µM | TGI (T-47D breast): 18.6 µM | GI50 (HL-60(TB) leukemia): 1.75 µM | TGI (HL-60(TB) leukemia): 3.14 µM | GI50 (LOX IMVI melanoma): 1.93 µM | TGI (LOX IMVI melanoma): 3.36 µM | GI50 (SNB-19 CNS): 1.99 µM | TGI (SNB-19 CNS): 3.6 µM | GI50 (RXF 393 renal): 1.83 µM | TGI (RXF 393 renal): 3.41 µM | GI50 (OVCAR-4 ovarian): 10.7 µM | TGI (OVCAR-4 ovarian): 22.6 µM | GI50 (MDA-MB-231 breast): 1.98 µM | TGI (MDA-MB-231 breast): 3.47 µM | GI50 (K-562 leukemia): 2.1 µM | TGI (K-562 leukemia): 3.56 µM | GI50 (MOLT-4 leukemia): 1.89 µM | TGI (MOLT-4 leukemia): 3.32 µM | GI50 (NCI-H226 lung): 2.6 µM | TGI (NCI-H226 lung): 5.69 µM | GI50 (U251 glioblastoma): 1.85 µM | TGI (U251 glioblastoma): 3.28 µM | GI50 (IGROV1 ovarian): 1.79 µM | TGI (IGROV1 ovarian): 3.34 µM | GI50 (OVCAR-5 ovarian): 19.1 µM | TGI (OVCAR-5 ovarian): 33.2 µM | GI50 (OVCAR-8 ovarian): 1.92 µM | TGI (OVCAR-8 ovarian): 3.47 µM | GI50 (NCI-H522 lung): 1.88 µM | TGI (NCI-H522 lung): 3.29 µM | GI50 (A498 renal): 15.1 µM | TGI (A498 renal): 28.4 µM | GI50 (SK-MEL-28 melanoma): 2.58 µM | TGI (SK-MEL-28 melanoma): 5.55 µM | GI50 (DU-145 prostate): 18.6 µM | TGI (DU-145 prostate): 32.6 µM | GI50 (NCI/ADR-RES ovarian): 15.3 µM | TGI (NCI/ADR-RES ovarian): 28.6 µM | GI50 (UACC-62 melanoma): 1.92 µM | TGI (UACC-62 melanoma): 3.36 µM | GI50 ([…]-0 renal): 2.61 µM | TGI (786-0 renal): 7.22 µM | GI50 (BT-549 breast): 2.1 µM | TGI (BT-549 breast): 3.7 µM | GI50 (MDA-MB-468 breast): 2.18 µM | TGI (MDA-MB-468 breast): 3.7 µM | GI50 (UACC-257 melanoma): 1.75 µM | TGI (UACC-257 melanoma): 3.18 µM | GI50 (ACHN renal): 12.4 µM | TGI (ACHN renal): 24.9 µM | GI50 (NCI-H322M lung): 4.14 µM | TGI (NCI-H322M lung): 12.6 µM | GI50 (KM12 colon): 4.16 µM | TGI (KM12 colon): 13.4 µM | GI50 (COLO 205 colon): 2.86 µM | TGI (COLO 205 colon): 6.54 µM | GI50 (MCF7 breast): 1.88 µM | TGI (MCF7 breast): 3.54 µM | GI50 (SF-539 CNS): 2.01 µM | TGI (SF-539 CNS): 3.76 µM | GI50 (HCC-2998 colon): 1.71 µM | TGI (HCC-2998 colon): 3.1 µM | GI50 (CAKI-1 renal): 2.44 µM | TGI (CAKI-1 renal): 5.2 µM | GI50 (SN12C renal): 2.09 µM | TGI (SN12C renal): 3.78 µM | GI50 (UO-31 renal): 12.5 µM | TGI (UO-31 renal): 25 µM | GI50 (HCT-116 colon): 1.83 µM | TGI (HCT-116 colon): 3.29 µM | GI50 (NCI-H23 lung): 6.96 µM | TGI (NCI-H23 lung): 18.3 µM | GI50 (SR leukemia): 1.79 µM | TGI (SR leukemia): 3.2 µM | GI50 (SF-295 CNS): 16.2 µM | TGI (SF-295 CNS): 29.8 µM | GI50 (SK-MEL-5 melanoma): 4.6 µM | TGI (SK-MEL-5 melanoma): 14.5 µM | GI50 (SW-620 colon): 1.93 µM | TGI (SW-620 colon): 3.37 µM | GI50 (MDA-MB-435 melanoma): 2.29 µM | TGI (MDA-MB-435 melanoma): 4.28 µM | GI50 (HT29 colon): 2.29 µM | TGI (HT29 colon): 4.83 µM | GI50 (CCRF-CEM leukemia): 1.81 µM | TGI (CCRF-CEM leukemia): 3.21 µM | GI50 (SK-OV-3 ovarian): 4.48 µM | TGI (SK-OV-3 ovarian): 15.5 µM | GI50 (HOP-92 NSCLC): 2.65 µM | TGI (HOP-92 NSCLC): 5.88 µM | GI50 (OVCAR-3 ovarian): 2.19 µM | TGI (OVCAR-3 ovarian): 4.24 µM | GI50 (SF-268 CNS): 1.94 µM | TGI (SF-268 CNS): 3.46 µM | GI50 (NCI-H460 NSCLC): 4.96 µM | TGI (NCI-H460 NSCLC): 16.9 µM | GI50 (M14 melanoma): 2 µM | TGI (M14 melanoma): 3.55 µM | GI50 (A549 NSCLC): 16.8 µM | TGI (A549 NSCLC): 30.6 µM
